Test results from patent US20070099822A1, “Regulation of tissue mineralization and phosphate metabolism by asarm peptides” (priority 2003, published 2007).

Test system: mouse osteoblast cell-line 2T3
Experiment: Mineralized bone matrix formation assay (von Kossa), BMP2-induced
Type: cell-based
Conditions: 2T3 cells, BMP2 100 ng/mL; Hu-MEPE 10-800 ng/mL, ASARM-peptide 60 and 300 ng/mL, control peptide 300 ng/mL
Text: Mineralized bone matrix formation assay. A mouse osteoblast cell-line (2T3-cells) were monitored using a mineralized matrix formation assay as described by Bhargava et al. (Ultrastructural analysis of bone nodules formed in vitro by isolated fetal rat calvaria cells. Bone 9:155-63, 1988) and cultured as described previously (Bhargava et al., supra; Chen et al. Differential roles for bone morphogenetic protein (BMP) receptor type IB and IA in differentiation and specification of mesenchymal precursor cells to osteoblast and adipocyte lineages. J Cell Biol 142:295-305, 1998; and Zhao, et al. Bone morphogenetic protein receptor signaling is necessary for normal murine postnatal bone formation. J Cell Biol 157:1049-60, 2002). Mineralization of the murine osteoblastic 2T3 cell-line has been extensively studied using physical techniques, electron microscopy and histological techniques. This cell line (2T3) undergoes exogenous BMP2-induced mineralized-matrix indistinguishable from normal bone-mineral hydroxyapatite in-vitro (Bhargava et al., supra; Chen et al., supra; and Zhao et al., supra). The cells were plated in 24-well culture plates at density of 2×10^4 cells/well and cultured with minimal essential medium (MEM) supplemented with 10% FCS. When the cells reached confluency (day 0), the medium was changed to MEM containing 5% FCS, 100 μg/mL ascorbic acid and 5 mM β-glycerol phosphate with or without 100 ng/mL of BMP-2. The effects of Hu-MEPE, MEPE ASARM-peptide and control peptide at different doses (see results section) in the absence and presence of BMP2 were measured using the von Kossa stain for mineralization. The medium was changed every other day and fresh reagents were added. Von Kossa stain of mineralized bone matrix was performed as follows. The cell cultures were washed with PBS twice, fixed in phosphate buffered formalin for 10 min, and then washed with water, and serially dehydrated in 70%, 95%, and 100% ethanol, twice each and air dried. The plates were rehydrated from 100% to 95% to 80% ethanol to water before staining. The water was removed, a 2% silver nitrate solution was added, and the plates were exposed to sunlight for 20 min, after which the plates were rinsed with water. 5% sodium thiosulfate was added for 3 min and the plates were then rinsed with water. The modified van Gieson stain was then used as a counterstain after the von Kossa stain. The unmineralized collagen matrix can be recognized by the yellow/red van Gieson stain. The acid fuchsin solution (5 part of 1% acid fuchsin, 95 part of picric acid, and 0.25 part of 12 M HCl) was added for 5 min. The plates were washed with water, and then 2×95% ethanol and 2×100% ethanol, and dried for image analysis. The area of von Kossa stained matrix was quantitated as previously described (Chen et al., supra). Briefly matrix was quantified by automated image analysis using a video analysis program (Jandel Scientific, San Rafael Calif.) and also a Bio-Rad (Hercules, Calif.) Quantity-1 image analysis capture program. A video screen camera (CCD/RGB; Sony Corp., Park Ridge, N.J.) linked to a microscope (model BH2; Olympus Corp., Precision Instruments Division, Lake Success, N.Y.) equipped with metallurgical lens was used to image plates.

CGSGYTDLQERGDNDISPFSGDGQPF (Homo sapien) [control peptide, reference compound]
effect on BMP2-mediated mineralization (von Kossa staining): failed to elicit any changes in mineralization
